Test results reported in patent US20250288599A1, “PHARMACEUTICAL COMPOSITIONS AND METHODS FOR TREATING OSTEOARTHRITIS” (INSIGNIA PHARMACEUTICALS, LLC, priority 2024, published 2025).

How the values were obtained:
[1] = system: SOX9 expression in dedifferentiated osteoarthritic chondrocytes; test: SOX9 relative expression in dedifferentiated osteoarthritic chondrocytes treated 14 days with Lac; format: cell-based, human
From the text: Lac is commonly thought to be simply an end-product of anaerobic glycolysis; however, it may also have immunomodulatory effects and promote protein modifications that alter gene expression. The goal of this experiment was to determine how Lac supplementation affects early-phase, inflammatory, and late-stage redifferentiation in chondrocyte models. To establish how Lac may influence inflammation early in osteoarthritis, monolayers of normal human chondrocytes were exposed to Lac dose responses of up to 100 millimolar, concurrently with 0.5 nanograms per milliliter IL-1β for 48 hours. The release of PGE2 was then quantified using competitive EIA. To investigate how Lac affects transcriptional programs in dedifferentiated osteoarthritic chondrocytes, monolayer cultures and micromass pellets were treated for 14 days with 100 millimolar final concentrations of Lac, with and without 10 nanograms per milliliter transforming growth factor beta 3 (TGF-β3). Total RNA was then isolated, and relative expression of SOX9 or Col2a1 was calculated using qRT-PCR, normalized to GAPDH. […] Lac may also have beneficial effects on osteoarthritic chondrocytes; 100 millimolar final Lac concentrations increased the relative expression of SOX9 and Col2a1 by 8-fold and 1600-fold, respectively, in monolayer cultures. […]

[2] = system: ACAN expression in human osteoarthritic chondrocytes; test: ACAN relative expression in human osteoarthritic chondrocytes (passage 5) cultured 27 days; format: cell-based; details: 50 micromolar Dec, 0.1 μM Dxp, 100 mM Lac
From the text: Delta-delta relative gene expression was employed to determine ACAN regulation in the 27-day samples referenced in Examples 15 and 16. A 3.81±0.77-fold increase in ACAN expression in the cells after 27 days of Lac treatment was observed. […] Without being bound by theory, it is hypothesized that these findings indicate that metabolic management and/or metabolite feedback loops represent promising therapy targets for osteoarthritis. Results associated with Example 17 are depicted in FIG. 53.

[3] = system: SOX9 expression in dedifferentiated osteoarthritic chondrocytes; test: SOX9 relative expression in high passage osteoarthritic chondrocyte monolayer model with TGF-β; format: cell-based, human; details: 14 days in culture with TGF-β; 28 mM Lac, 100 mm LA
Procedure: These compounds were tested in a high passage osteoarthritic chondrocyte monolayer model, alone or in combination with other agents, for both transcriptional regulation of standard markers and IL-1β-induced PGE2 production.

[4] = system: Col1a1 expression in human osteoarthritic chondrocytes; test: Col1a1 relative expression in human osteoarthritic chondrocytes (passage 5) cultured 27 days; format: cell-based; details: 50 micromolar Dec, 0.1 μM Dxp, 100 mM Lac
Procedure: (§1) To evaluate the biological ramifications of the SOX9 to RUNX2 regulation mentioned above, delta-delta relative gene expression was assessed against medium controls, with normalization to GAPDH for both Col2a1 and Col1a1 in the samples tested with reference to Example 15. […] Moreover, treatment with 100 mM Lac increased collagen expression (49.88±4.31 and 1.63±0.20 for Col2a1 and Col1a1, respectively; FIGS. 51 and 52).

[5] = system: Col2a1 expression in human osteoarthritic chondrocytes; test: Col2a1 relative expression in human osteoarthritic chondrocytes (passage 5) cultured 27 days; format: cell-based; details: 50 micromolar Dec, 0.1 μM Dxp, 100 mM Lac
Procedure: as §1

[6] = system: Col2a1 expression in dedifferentiated osteoarthritic chondrocytes; test: Col2a1 relative expression in dedifferentiated osteoarthritic chondrocytes treated 14 days with Lac; format: cell-based, human
From the text: Lac is commonly thought to be simply an end-product of anaerobic glycolysis; however, it may also have immunomodulatory effects and promote protein modifications that alter gene expression. The goal of this experiment was to determine how Lac supplementation affects early-phase, inflammatory, and late-stage redifferentiation in chondrocyte models. To establish how Lac may influence inflammation early in osteoarthritis, monolayers of normal human chondrocytes were exposed to Lac dose responses of up to 100 millimolar, concurrently with 0.5 nanograms per milliliter IL-1β for 48 hours. The release of PGE2 was then quantified using competitive EIA. To investigate how Lac affects transcriptional programs in dedifferentiated osteoarthritic chondrocytes, monolayer cultures and micromass pellets were treated for 14 days with 100 millimolar final concentrations of Lac, with and without 10 nanograms per milliliter transforming growth factor beta 3 (TGF-β3). Total RNA was then isolated, and relative expression of SOX9 or Col2a1 was calculated using qRT-PCR, normalized to GAPDH. […] Lac may also have beneficial effects on osteoarthritic chondrocytes; 100 millimolar final Lac concentrations increased the relative expression of SOX9 and Col2a1 by 8-fold and 1600-fold, respectively, in monolayer cultures. […] Furthermore, adding Lac with TGF-β3 to micromass cultures increased SOX9 and Col2a1 by 9-fold and 88-fold, respectively.

[7] = system: MMP12 expression in normal human dermal fibroblasts (NHDF); test: MMP12 mRNA in NHDF activated with IL-1β, 24 h, qRT-PCR; format: cell-based; details: IL-1β 0.1 ng/ml, 100 mM Lac or 0.1 mM Dxp, IL-1β alone 17.8±12.3
Procedure: (§2) After 24 hours, total mRNA was isolated and delta-delta Cp relative expression was calculated versus untreated medium controls, normalized to the housekeeping gene, GAPDH. Statistical analysis was then conducted via t-test.

[8] = system: SOX9 expression in human osteoarthritic chondrocytes; test: SOX9 relative expression in high and low passage osteoarthritic chondrocytes, 7, 14 or 28 days; format: cell-based
From the text: Media was exchanged bi-weekly. […] SOX9 is a transcription factor vital to the development and maintenance of cartilage and is required for chondrogenesis. SOX9 promotes chondrocyte survival and transcriptionally activates cartilage-specific genes. SOX9 is repressed in hypertrophic chondrocytes (i.e. terminally differentiated osteoblast-like cells).

[9] = system: RUNX2 expression in human osteoarthritic chondrocytes; test: RUNX2 relative expression in low passage osteoarthritic chondrocytes, 7, 14 or 28 days; format: cell-based; details: 7, 14, 28 days
Procedure: Media was exchanged bi-weekly. Chondrocytes cultured for 7 days, 14 days, or 28 days were analyzed to assess SOX9 and RUNX2 expression. SOX9 is a transcription factor vital to the development and maintenance of cartilage and is required for chondrogenesis. SOX9 promotes chondrocyte survival and transcriptionally activates cartilage-specific genes. SOX9 is repressed in hypertrophic chondrocytes (i.e. terminally differentiated osteoblast-like cells).
The RUNX2 expression is provided at 7, 14, and 28 days of culturing.

[10] = system: PGE2 release from passage 3 normal human chondrocytes; test: Rescue versus preincubation regimens, IL-1β-induced PGE2 release from passage 3 normal human chondrocytes; format: cell-based; details: 25 μM Dec, 28 mM Lac, 10 μM LA, singlet
From the text: The mechanisms of action (MOA) of a drug often dictate the timing and delivery of treatment regimens. While the MOA of compounds disclosed herein continue to be elucidated, experiments were designed to help establish how the drugs should be administered. Furthermore, these experiments will also help with hypothesis generation for subsequent MOA investigations. A low-passage chondrocyte monolayer model was utilized to establish how changes in drug delivery impact the inhibition of IL-1β-induced PGE2 release seen following treatment with the compounds under investigation.
Passage 3 normal human chondrocytes were seeded into tissue culture plates and then tested for compound activity by pre-treating for 24 hours, administering at the same time as activation, or by adding to cells following an overnight activation with IL-1β. Treatment groups included medium control, 25 μM decanoate (Dec), 28 mM D/L sodium Lac, and 10 μM LA. PGE2 release was then evaluated 24- or 96-hours post-activation with percent inhibitions calculated versus plate- and block-matched controls. The experiments were performed in singlet and are intended to be repeated to establish variance.

[11] = system: Elastin (ELN) expression in normal human dermal fibroblasts (NHDF); test: ELN mRNA in NHDF activated with TGF-β1 or IL-1β, 24 h, qRT-PCR; format: cell-based; details: 100 mM Lac or 0.1 mM Dxp
Procedure: as §2

[12] = system: MMP3 expression in normal human dermal fibroblasts (NHDF); test: MMP3 mRNA in NHDF activated with IL-1β, 24 h, qRT-PCR; format: cell-based; details: IL-1β 0.1 ng/ml, 100 mM Lac or 0.1 mM Dxp, IL-1β alone 3.5±1.7
Procedure: as §2

[13] = 100 millimolar Lac with TGF-β3, 14 days, micromass cultures
[14] = 100 millimolar Lac, 14 days, monolayer cultures
[15] = low passage osteoarthritic chondrocytes, 7, 14, 28 days

SMILES: CC(O)C(=O)O (stereo not shown) [Lac, lactate]
- increase in SOX9 [1, 13]: 9 fold
- increase in relative expression of SOX9 [1, 14]: 8 fold
- ACAN delta-delta relative gene expression [2]: 3.81±0.77 fold
- increase in SOX9 transcription [3]: 2 fold
- Col1a1 delta-delta relative gene expression [4]: 1.63±0.20 fold
- Col2a1 delta-delta relative gene expression [5]: 49.88±4.31 fold
- increase in Col2a1 [6, 13]: 88 fold
- increase in collagen ([6]; 100 millimolar Lac, 14 days, micromass pellets): 11 fold
- increase in relative expression of Col2a1 [6, 14]: 1600 fold
- relative expression of MMP12 [7]: 2.2±0.8
- SOX9 expression ([8]; high passage, dedifferentiated osteoarthritic chondrocytes with TGF-β3, 14 days): increased SOX9 transcription
- SOX9 expression [8, 15]: temporal increase in SOX9
- ratio of SOX9/RUNX2 [8, 15]: temporally increased
- RUNX2 expression [9]: temporal decrease in RUNX2
- inhibition of PGE2 release ([10]; rescue (added after overnight IL-1β activation), 24-hour harvest): 64%
- inhibition of PGE2 release ([10]; rescue, 96-hour harvest): 27%
- relative expression of ELN ([11]; IL-1β 0.1 ng/ml, IL-1β alone 18±12, n=3): 0.86±3
- relative expression of ELN ([11]; TGF-β1 10 ng/ml, TGF-β1 alone 110±35, n=3): 45+36
- relative expression of MMP3 [12]: 1.5±0.8
